In general, Emax refers to the size of the effect at its maximum, as opposed to the concentration needed. The EC50 is the concentration giving half of the maximal effect.

The text below walks through data of patent US20240352075A1, “PACAP1-23 ANALOG GLYCOPEPTIDES AND METHODS FOR PRODUCING AND USING THE SAME” (priority 2021, published 2024).

The target of assay [1] is T1, PAC1 (Homo sapiens, UniProt P41586).
T1 construct: 3xHA (N)
T1 sequence (P41586 21-468): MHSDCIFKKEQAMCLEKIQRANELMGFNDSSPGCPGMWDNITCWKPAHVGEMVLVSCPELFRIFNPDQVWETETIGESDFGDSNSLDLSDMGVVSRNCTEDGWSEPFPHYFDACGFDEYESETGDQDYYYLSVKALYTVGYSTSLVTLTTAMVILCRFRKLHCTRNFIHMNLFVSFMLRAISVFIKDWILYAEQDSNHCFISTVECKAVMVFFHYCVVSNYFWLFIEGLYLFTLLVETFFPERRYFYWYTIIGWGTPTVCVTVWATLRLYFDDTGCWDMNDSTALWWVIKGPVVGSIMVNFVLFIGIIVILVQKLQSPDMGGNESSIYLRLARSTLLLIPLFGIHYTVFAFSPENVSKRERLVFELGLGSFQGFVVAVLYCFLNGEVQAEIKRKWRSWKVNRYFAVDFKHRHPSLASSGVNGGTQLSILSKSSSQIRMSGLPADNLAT
Put plainly: cAMP accumulation assay in CHO cells stably expressing PAC1. It is filed as cell-based. Conditions: for Emax: CHO.
Description: Cell Culture: CHO cells stably expressing cloned PAC1, VPAC1, and VPAC2 were produced by electroporation with human PAC1/VPAC1/VPAC2 N-3×HA tag cDNA constructs (GeneCopocia). Cells were grown on 10 cm dishes in DMEM/F-12 50/50 mix w/L-glutamine & 15 mM HEPES (Corning) containing 10% heat inactivated fetal bovine serum, 100 units/mL penicillin, 100 μg/mL streptomycin, and 500 μg/mL G418 under 5% CO2 at 37° C. The cells were enriched into high expressing populations using flow cytometry, selecting the top ˜2% of expressing cells.
CAMP Accumulation Assay: At ˜80% confluence, cells were plated into 96-well plates (20.000 cells/well) and grown in the same medium and conditions as described above for 24 hrs. The cells were then serum starved for 4 hr. After a 20 min incubation at 37° C. with 500 μM 3-Isobutyl-1-methylxanthine (IBMX), serum free medium containing 500 μM IBMX and the appropriate agonists were added and then incubated for 10 min at 37° C. The reaction was terminated by removing the medium and adding 60 μL of ice-cold assay buffer (50 mM Tris-HCl pH 7.4, 100 mM NaCl, 5 mM ethylenediaminetetraacetic acid [EDTA]). Plates were sealed with boiling mats and then boiled at 95° C. for 10 min. Plates were then centrifuged at 4000 rpm, 4° C., for 10 min to remove debris. 50 μL of lysate was transferred to a 96-well plate. Lysate was incubated with ˜1 μmol 3H-CAMP (PerkinElmer), and 7 μg protein kinase A (Sigma Aldrich) with 0.05% Bovine Serum Albumin (BSA). The assay was incubated at room temperature for 1 hr. The reactions were then harvested onto GF/B filter plates (PerkinElmer) via rapid filtration by a 96-well plate Cell Harvester (Brandel) and washed 3 times with ice-cold water. Filter plates were dried, 40 μL of Microscint-PS scintillation cocktail was added to each well, and then counted in a TopCount or Microbeta2 (PerkinElmer) microplate scintillation counter.

Assay [2] addresses T2, VPAC1 (Homo sapiens, UniProt P32241).
T2 construct: 3xHA (N)
T2 sequence (P32241 31-457): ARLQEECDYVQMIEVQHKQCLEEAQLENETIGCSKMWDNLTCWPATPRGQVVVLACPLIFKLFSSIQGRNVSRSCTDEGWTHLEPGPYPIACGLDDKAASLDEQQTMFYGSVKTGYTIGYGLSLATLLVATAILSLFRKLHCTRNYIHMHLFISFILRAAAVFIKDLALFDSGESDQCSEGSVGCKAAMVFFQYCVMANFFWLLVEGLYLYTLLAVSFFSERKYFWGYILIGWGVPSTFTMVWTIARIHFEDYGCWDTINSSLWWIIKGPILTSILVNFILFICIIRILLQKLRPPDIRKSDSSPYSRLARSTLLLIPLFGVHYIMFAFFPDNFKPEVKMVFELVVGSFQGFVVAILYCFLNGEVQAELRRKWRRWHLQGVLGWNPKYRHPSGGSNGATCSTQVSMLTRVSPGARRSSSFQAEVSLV
Put plainly: cAMP accumulation assay in CHO cells stably expressing VPAC1. Format: cell-based. Conditions: for Emax: CHO. (In general: Cyclic AMP is a second messenger, typically raised through Gs and lowered through Gi signalling.)

Assay [3] deals with T3, VPAC2 (Homo sapiens, UniProt P41587).
T3 construct: 3xHA (N)
T3 sequence (P41587 24-438): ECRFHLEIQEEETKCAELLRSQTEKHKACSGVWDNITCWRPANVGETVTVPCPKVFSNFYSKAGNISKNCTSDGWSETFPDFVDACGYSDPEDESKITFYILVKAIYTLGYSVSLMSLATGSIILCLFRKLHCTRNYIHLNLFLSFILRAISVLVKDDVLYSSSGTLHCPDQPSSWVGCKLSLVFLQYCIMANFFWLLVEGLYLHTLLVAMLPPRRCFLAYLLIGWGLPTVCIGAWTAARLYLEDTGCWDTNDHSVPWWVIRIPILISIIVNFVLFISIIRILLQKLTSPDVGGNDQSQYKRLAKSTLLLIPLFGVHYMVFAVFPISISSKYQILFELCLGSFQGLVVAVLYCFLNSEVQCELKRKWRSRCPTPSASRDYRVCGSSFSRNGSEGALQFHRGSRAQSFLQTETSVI
Put plainly: cAMP accumulation assay in CHO cells stably expressing VPAC2. Conditions: for Emax: CHO. It is filed as cell-based.

Assay [4] addresses T4, human VPAC2 (human, UniProt P41587 24-438).
T4 sequence (looked up): T3 sequence (P41587 24-438)
Put plainly: cell-based or functional assay.

Assay [5] has as its target T5, human VPAC1 (human, UniProt P32241 31-457).
T5 sequence (looked up): T2 sequence (P32241 31-457)
Put plainly: cell-based or functional assay.

In assay [6] the target is T6, human PAC1 (human, UniProt P41586 21-468).
T6 sequence (looked up): T1 sequence (P41586 21-468)
Put plainly: cell-based or functional assay.

Assay [7] concerns the target T4, human VPAC2. Put plainly: cell-based or functional assay. The source holds these as a separate data set.
Assay [8] deals with T5, human VPAC1. Nature of the assay: cell-based or functional assay. This is another data set of the same source.
[9] abbreviates: Table 3, in vitro cAMP stimulation, NC = No Convergence (no activity).

Where “and” joins values, the source holds several entries; their conditions need not be identical. Equal values may be shown once. Where a SMILES comes first, the peptide text is derived from it. Primed or numbered codes have the meaning given here. Where no end group is shown, it is not given here. [ ]: non-standard residue; d: D form. The star is where a group is joined. ξ: configuration not given here. X2 = OCC1OC(OC2C(CO)OC(*)C(O)C2O)C(O)C(O)C1O; Lac′ = lactose, glycoside on Ser; X1 = OCC1OC(*)C(O)C(O)C1O; Nva = CCC[C@H](N)C(=O)O; ξS = NC(CO)C(=O)O; Sar = CNCC(=O)O

Take `CCC[C@H](NC(=O)[C@H](CCC(N)=O)NC(=O)[C@H](CCCCN)NC(=O)[C@H](CCCNC(=N)N)NC(=O)[C@H](Cc1ccc(O)cc1)NC(=O)[C@H](CCCNC(=N)N)NC(=O)[C@H](CO)NC(=O)[C@H](Cc1ccc(O)cc1)NC(=O)[C@H](CO)NC(=O)[C@H](CC(=O)O)NC(=O)[C@@H](NC(=O)[C@H](Cc1ccccc1)NC(=O)[C@@H](NC(=O)CNC(=O)[C@H](CC(=O)O)NC(=O)[C@H](CO)NC(=O)[C@@H](N)Cc1c[nH]cn1)[C@@H](C)CC)[C@@H](C)O)C(=O)N[C@@H](C)C(=O)N[C@H](C(=O)N[C@@H](CCCCN)C(=O)N[C@@H](CCCCN)C(=O)N[C@@H](Cc1ccc(O)cc1)C(=O)N[C@@H](CC(C)C)C(=O)N[C@@H](CO)C(N)=O)C(C)C` [CRA-DV-3022] (H-HSDGIFTDSYSRYRKQ[Nva]AVKKYLS-NH2): the maximum response (Emax) in assay [1] is 198%; in assay [2], 42% and 94%; in assay [3], 111%; in assay [3] (setting [9]), 91%. The EC50 in assay [1] (Table 3, in vitro cAMP stimulation) is 2.2 nM; in assay [2] (Table 1, cAMP stimulation, CHO cells), 5.2 nM; in assay [3] (Table 1, cAMP stimulation, CHO cells, NC not defined here (Table 3: No Convergence)), 571 nM; in assay [3] (setting [9]) it was 571 nM.
As for `CCC[C@H](NC(=O)[C@H](CCC(N)=O)NC(=O)[C@H](CCCCN)NC(=O)[C@H](CCCNC(=N)N)NC(=O)[C@H](Cc1ccc(O)cc1)NC(=O)[C@H](CCCNC(=N)N)NC(=O)[C@H](CO)NC(=O)[C@H](Cc1ccc(O)cc1)NC(=O)[C@H](CO)NC(=O)[C@H](CC(=O)O)NC(=O)[C@@H](NC(=O)[C@H](Cc1ccccc1)NC(=O)[C@@H](NC(=O)CNC(=O)[C@H](CC(=O)O)NC(=O)[C@H](CO)NC(=O)[C@@H](N)Cc1c[nH]cn1)[C@@H](C)CC)[C@@H](C)O)C(=O)N[C@@H](C)C(=O)N[C@H](C(=O)N[C@@H](CCCCN)C(=O)N[C@@H](CCCCN)C(=O)N[C@@H](Cc1ccc(O)cc1)C(=O)N[C@@H](CC(C)C)C(=O)NC(COC1OC(CO)C(O)C(O)C1O)C(N)=O)C(C)C` (stereo partly shown) [CRA-DV-3023] (H-HSDGIFTDSYSRYRKQ[Nva]AVKKYL[ξS](X1)-NH2), the Emax is 181% in assay [1], 105% in assay [2] and 90% in assay [3] (setting [9]).
For `CCC[C@H](NC(=O)[C@H](CCC(N)=O)NC(=O)[C@H](CCCCN)NC(=O)[C@H](CCCNC(=N)N)NC(=O)[C@H](Cc1ccc(O)cc1)NC(=O)[C@H](CCCNC(=N)N)NC(=O)[C@H](CO)NC(=O)[C@H](Cc1ccc(O)cc1)NC(=O)[C@H](CO)NC(=O)[C@H](CC(=O)O)NC(=O)[C@@H](NC(=O)[C@H](Cc1ccccc1)NC(=O)[C@@H](NC(=O)CNC(=O)[C@H](CC(=O)O)NC(=O)[C@H](CO)NC(=O)[C@@H](N)Cc1c[nH]cn1)[C@@H](C)CC)[C@@H](C)O)C(=O)N[C@@H](C)C(=O)N[C@H](C(=O)N[C@@H](CCCCN)C(=O)N[C@@H](CCCCN)C(=O)N[C@@H](Cc1ccc(O)cc1)C(=O)N[C@@H](CC(C)C)C(=O)NC(COC1OC(CO)C(O)C(O)C1O)C(=O)NC(COC1OC(CO)C(O)C(O)C1O)C(N)=O)C(C)C` (stereo partly shown) [CRA-DV-3024] (H-HSDGIFTDSYSRYRKQ[Nva]AVKKYL[ξS](X1)[ξS](X1)-NH2) the same measures were 152%, 127% and 130%.
`CCC[C@H](NC(=O)[C@H](CCC(N)=O)NC(=O)[C@H](CCCCN)NC(=O)[C@H](CCCNC(=N)N)NC(=O)[C@H](Cc1ccc(O)cc1)NC(=O)[C@H](CCCNC(=N)N)NC(=O)[C@H](CO)NC(=O)[C@H](Cc1ccc(O)cc1)NC(=O)[C@H](CO)NC(=O)[C@H](CC(=O)O)NC(=O)[C@@H](NC(=O)[C@H](Cc1ccccc1)NC(=O)[C@@H](NC(=O)CNC(=O)[C@H](CC(=O)O)NC(=O)[C@H](CO)NC(=O)[C@@H](N)Cc1c[nH]cn1)[C@@H](C)CC)[C@@H](C)O)C(=O)N[C@@H](C)C(=O)N[C@H](C(=O)N[C@@H](CCCCN)C(=O)N[C@@H](CCCCN)C(=O)N[C@@H](Cc1ccc(O)cc1)C(=O)N[C@@H](CC(C)C)C(=O)NC(COC1OC(CO)C(OC2OC(CO)C(O)C(O)C2O)C(O)C1O)C(N)=O)C(C)C` (stereo partly shown) [CRA-TG-3025] (H-HSDGIFTDSYSRYRKQ[Nva]AVKKYL[ξS](X2)-NH2): the maximal effect (Emax) in assay [1] worked out at 174%; in assay [2], 91%; in assay [3], 168%; in assay [3] (setting [9]) it was 118%.
For `CCC[C@H](NC(=O)[C@H](CCC(N)=O)NC(=O)[C@H](CCCCN)NC(=O)[C@H](CCCNC(=N)N)NC(=O)[C@H](Cc1ccc(O)cc1)NC(=O)[C@H](CCCNC(=N)N)NC(=O)[C@H](CO)NC(=O)[C@H](Cc1ccc(O)cc1)NC(=O)[C@H](CO)NC(=O)[C@H](CC(=O)O)NC(=O)[C@@H](NC(=O)[C@H](Cc1ccccc1)NC(=O)[C@@H](NC(=O)[C@H](C)NC(=O)[C@H](CC(=O)O)NC(=O)[C@H](CO)NC(=O)[C@@H](N)Cc1c[nH]cn1)[C@@H](C)CC)[C@@H](C)O)C(=O)N[C@@H](C)C(=O)N[C@H](C(=O)N[C@@H](CCCCN)C(=O)N[C@@H](CCCCN)C(=O)N[C@@H](Cc1ccc(O)cc1)C(=O)N[C@@H](CC(C)C)C(=O)NC(COC1OC(CO)C(OC2OC(CO)C(O)C(O)C2O)C(O)C1O)C(N)=O)C(C)C` (stereo partly shown) [CRA-TG-3026] (H-HSDAIFTDSYSRYRKQ[Nva]AVKKYL[ξS](X2)-NH2) the same measures were 181%, 95%, 190% and 115%.
For the molecule `CCC[C@H](NC(=O)[C@H](CCC(N)=O)NC(=O)[C@H](CCCCN)NC(=O)[C@H](CCCNC(=N)N)NC(=O)[C@H](Cc1ccc(O)cc1)NC(=O)[C@H](CCCNC(=N)N)NC(=O)[C@H](CO)NC(=O)[C@H](Cc1ccc(O)cc1)NC(=O)[C@H](CO)NC(=O)[C@H](CC(=O)O)NC(=O)[C@@H](NC(=O)[C@H](Cc1ccccc1)NC(=O)[C@@H](NC(=O)CN(C)C(=O)[C@H](CC(=O)O)NC(=O)[C@H](CO)NC(=O)[C@@H](N)Cc1c[nH]cn1)[C@@H](C)CC)[C@@H](C)O)C(=O)N[C@@H](C)C(=O)N[C@H](C(=O)N[C@@H](CCCCN)C(=O)N[C@@H](CCCCN)C(=O)N[C@@H](Cc1ccc(O)cc1)C(=O)N[C@@H](CC(C)C)C(=O)NC(COC1OC(CO)C(OC2OC(CO)C(O)C(O)C2O)C(O)C1O)C(N)=O)C(C)C` (stereo partly shown) [CRA-TG-3027] (H-HSD[Sar]IFTDSYSRYRKQ[Nva]AVKKYL[ξS](X2)-NH2), the Emax in assay [1] was found to be 134%; in assay [2], 90%.

B1: CRA-DV-3022 (peptide)
peptide: HSDGIFTDSYSRYRKQ[Nva]AVKKYLS-NH2
modifications: not fully specified
With B1, the entries for the “cAMP stimulation EC50” value in assay [4], in assay [5] and in assay [6] were 571 nM, 5.2 nM and 2.2 nM, respectively. Besides, the “cAMP stimulation Emax” value in assay [4] amounted to 91%; in assay [5], 94%; in assay [6], 198%. Besides, the “cAMP stimulation Emax (Table 1, differs from Table 3)” value was 111% in assay [7] and 42% in assay [8].

B2: CRA-TG-3025 (peptide)
peptide: HSDGIFTDSYSRYRKQ[Nva]AVKKYLS(Lac′)-NH2
For the molecule B2, the “cAMP stimulation EC50” value in assay [5] amounted to 21 nM; in assay [6], 1.8 nM. Besides, the “cAMP stimulation Emax (Table 1, differs from Table 3)” value in assay [8] is 118%.

B3: CRA-TG-3027 (peptide)
peptide: HSD[Sar]IFTDSYSRYRKQ[Nva]AVKKYLS(Lac′)-NH2
With B3, the “cAMP stimulation EC50” value was 195 nM in assay [5] and 67 nM in assay [6]. Moreover, the “cAMP stimulation Emax” value in assay [5] worked out at 90%; in assay [6] it was 134%. Moreover, the “cAMP stimulation Emax (Table 1, differs from Table 3)” value in assay [8] is 107%.
